Measurements from the NIST ThermoML archive (doi:10.1016/j.jct.2015.01.004).
“And” between values parts separate entries of the source, which are not always exact repeats. Equal values may be shown once.

Assay: molar heat capacity at constant pressure; xn = mol fraction of the nth substance listed
Settings: 100 kPa

[Si] [silicon] + [Li]
Settings | molar heat capacity at constant pressure
127.62 K, Crystal of intercomponent compound 2, relaxation calorimeter, x2 = 0.804 | 12.78 J/K/mol
127.64 K, Crystal of intercomponent compound 2, relaxation calorimeter, x2 = 0.804 | 12.84 J/K/mol
130 K, Crystal of intercomponent compound 1, relaxation calorimetry + DSC, x2 = 0.81 | 12.64 J/K/mol
130 K, Crystal of intercomponent compound 2, relaxation calorimetry + DSC, x2 = 0.804 | 13.04 J/K/mol
131.69 K, Crystal of intercomponent compound 1, relaxation calorimetry, x2 = 0.81 | 12.88 J/K/mol
131.69 K, Crystal of intercomponent compound 2, relaxation calorimeter, x2 = 0.804 | 13.22 J/K/mol
131.71 K, Crystal of intercomponent compound 2, relaxation calorimeter, x2 = 0.804 | 13.3 J/K/mol
135.76 K, Crystal of intercomponent compound 1, relaxation calorimetry, x2 = 0.81 | 13.31 J/K/mol
135.76 K, Crystal of intercomponent compound 2, relaxation calorimeter, x2 = 0.804 | 13.64 J/K/mol
135.78 K, Crystal of intercomponent compound 2, relaxation calorimeter, x2 = 0.804 | 13.71 J/K/mol
139.83 K, Crystal of intercomponent compound 1, relaxation calorimetry, x2 = 0.81 | 13.71 J/K/mol
139.83 K, Crystal of intercomponent compound 2, relaxation calorimeter, x2 = 0.804 | 14.04 J/K/mol
139.85 K, Crystal of intercomponent compound 2, relaxation calorimeter, x2 = 0.804 | 14.09 J/K/mol
140 K, Crystal of intercomponent compound 1, relaxation calorimetry + DSC, x2 = 0.81 | 13.65 J/K/mol
140 K, Crystal of intercomponent compound 2, relaxation calorimetry + DSC, x2 = 0.804 | 14.07 J/K/mol
143.86 K, Crystal of intercomponent compound 1, relaxation calorimetry, x2 = 0.81 | 14.08 J/K/mol
143.87 K, Crystal of intercomponent compound 2, relaxation calorimeter, x2 = 0.804 | 14.45 J/K/mol
143.88 K, Crystal of intercomponent compound 2, relaxation calorimeter, x2 = 0.804 | 14.5 J/K/mol
147.97 K, Crystal of intercomponent compound 1, relaxation calorimetry, x2 = 0.81 | 14.51 J/K/mol
147.98 K, Crystal of intercomponent compound 2, relaxation calorimeter, x2 = 0.804 | 14.83 J/K/mol
147.99 K, Crystal of intercomponent compound 2, relaxation calorimeter, x2 = 0.804 | 14.94 J/K/mol
150 K, Crystal of intercomponent compound 1, relaxation calorimetry + DSC, x2 = 0.81 | 14.58 J/K/mol
150 K, Crystal of intercomponent compound 2, relaxation calorimetry + DSC, x2 = 0.804 | 15.01 J/K/mol
152 K, Crystal of intercomponent compound 1, relaxation calorimetry, x2 = 0.81 | 14.84 J/K/mol
152 K, Crystal of intercomponent compound 2, relaxation calorimeter, x2 = 0.804 | 15.17 J/K/mol
152.02 K, Crystal of intercomponent compound 2, relaxation calorimeter, x2 = 0.804 | 15.29 J/K/mol
156.1 K, Crystal of intercomponent compound 1, relaxation calorimetry, x2 = 0.81 | 15.17 J/K/mol
156.1 K, Crystal of intercomponent compound 2, relaxation calorimeter, x2 = 0.804 | 15.54 J/K/mol
156.12 K, Crystal of intercomponent compound 2, relaxation calorimeter, x2 = 0.804 | 15.62 J/K/mol
160 K, Crystal of intercomponent compound 1, relaxation calorimetry + DSC, x2 = 0.81 | 15.43 J/K/mol
160 K, Crystal of intercomponent compound 2, relaxation calorimetry + DSC, x2 = 0.804 | 15.88 J/K/mol
160.12 K, Crystal of intercomponent compound 1, relaxation calorimetry, x2 = 0.81 | 15.52 J/K/mol
160.13 K, Crystal of intercomponent compound 2, relaxation calorimeter, x2 = 0.804 | 15.86 J/K/mol
160.14 K, Crystal of intercomponent compound 2, relaxation calorimeter, x2 = 0.804 | 15.96 J/K/mol
164.23 K, Crystal of intercomponent compound 1, relaxation calorimetry, x2 = 0.81 | 15.85 J/K/mol
164.23 K, Crystal of intercomponent compound 2, relaxation calorimeter, x2 = 0.804 | 16.22 J/K/mol
164.24 K, Crystal of intercomponent compound 2, relaxation calorimeter, x2 = 0.804 | 16.27 J/K/mol
168.29 K, Crystal of intercomponent compound 1, relaxation calorimetry, x2 = 0.81 | 16.17 J/K/mol
168.29 K, Crystal of intercomponent compound 2, relaxation calorimeter, x2 = 0.804 | 16.53 J/K/mol
168.31 K, Crystal of intercomponent compound 2, relaxation calorimeter, x2 = 0.804 | 16.6 J/K/mol
170 K, Crystal of intercomponent compound 1, relaxation calorimetry + DSC, x2 = 0.81 | 16.22 J/K/mol
170 K, Crystal of intercomponent compound 2, relaxation calorimetry + DSC, x2 = 0.804 | 16.67 J/K/mol
172.36 K, Crystal of intercomponent compound 1, relaxation calorimetry, x2 = 0.81 | 16.41 J/K/mol
172.36 K, Crystal of intercomponent compound 2, relaxation calorimeter, x2 = 0.804 | 16.79 J/K/mol
172.38 K, Crystal of intercomponent compound 2, relaxation calorimeter, x2 = 0.804 | 16.9 J/K/mol
176.43 K, Crystal of intercomponent compound 1, relaxation calorimetry, x2 = 0.81 | 16.71 J/K/mol
176.43 K, Crystal of intercomponent compound 2, relaxation calorimeter, x2 = 0.804 | 17.06 J/K/mol and 17.19 J/K/mol
180 K, Crystal of intercomponent compound 1, relaxation calorimetry + DSC, x2 = 0.81 | 16.94 J/K/mol
180 K, Crystal of intercomponent compound 2, relaxation calorimetry + DSC, x2 = 0.804 | 17.39 J/K/mol
180.45 K, Crystal of intercomponent compound 1, relaxation calorimetry, x2 = 0.81 | 16.95 J/K/mol
180.45 K, Crystal of intercomponent compound 2, relaxation calorimeter, x2 = 0.804 | 17.33 J/K/mol
180.46 K, Crystal of intercomponent compound 2, relaxation calorimeter, x2 = 0.804 | 17.44 J/K/mol
184.56 K, Crystal of intercomponent compound 2, relaxation calorimeter, x2 = 0.804 | 17.58 J/K/mol
184.57 K, Crystal of intercomponent compound 1, relaxation calorimetry, x2 = 0.81 | 17.2 J/K/mol
184.57 K, Crystal of intercomponent compound 2, relaxation calorimeter, x2 = 0.804 | 17.69 J/K/mol
188.58 K, Crystal of intercomponent compound 2, relaxation calorimeter, x2 = 0.804 | 17.84 J/K/mol
188.59 K, Crystal of intercomponent compound 1, relaxation calorimetry, x2 = 0.81 | 17.45 J/K/mol
188.59 K, Crystal of intercomponent compound 2, relaxation calorimeter, x2 = 0.804 | 17.97 J/K/mol
190 K, Crystal of intercomponent compound 1, relaxation calorimetry + DSC, x2 = 0.81 | 17.6 J/K/mol
190 K, Crystal of intercomponent compound 2, relaxation calorimetry + DSC, x2 = 0.804 | 18.05 J/K/mol
192.69 K, Crystal of intercomponent compound 1, relaxation calorimetry, x2 = 0.81 | 17.73 J/K/mol
192.69 K, Crystal of intercomponent compound 2, relaxation calorimeter, x2 = 0.804 | 18.09 J/K/mol
192.71 K, Crystal of intercomponent compound 2, relaxation calorimeter, x2 = 0.804 | 18.27 J/K/mol
196.74 K, Crystal of intercomponent compound 2, relaxation calorimeter, x2 = 0.804 | 18.32 J/K/mol
196.78 K, Crystal of intercomponent compound 1, relaxation calorimetry, x2 = 0.81 | 17.96 J/K/mol
196.78 K, Crystal of intercomponent compound 2, relaxation calorimeter, x2 = 0.804 | 18.47 J/K/mol
200 K, Crystal of intercomponent compound 1, relaxation calorimetry + DSC, x2 = 0.81 | 18.2 J/K/mol
200 K, Crystal of intercomponent compound 2, relaxation calorimetry + DSC, x2 = 0.804 | 18.65 J/K/mol
200.77 K, Crystal of intercomponent compound 2, relaxation calorimeter, x2 = 0.804 | 18.54 J/K/mol
200.8 K, Crystal of intercomponent compound 1, relaxation calorimetry, x2 = 0.81 | 18.22 J/K/mol
200.8 K, Crystal of intercomponent compound 2, relaxation calorimeter, x2 = 0.804 | 18.74 J/K/mol
204.91 K, Crystal of intercomponent compound 2, relaxation calorimeter, x2 = 0.804 | 18.8 J/K/mol
204.92 K, Crystal of intercomponent compound 1, relaxation calorimetry, x2 = 0.81 | 18.43 J/K/mol
204.93 K, Crystal of intercomponent compound 2, relaxation calorimeter, x2 = 0.804 | 18.97 J/K/mol
208.92 K, Crystal of intercomponent compound 2, relaxation calorimeter, x2 = 0.804 | 19.05 J/K/mol
208.93 K, Crystal of intercomponent compound 1, relaxation calorimetry, x2 = 0.81 | 18.63 J/K/mol
208.94 K, Crystal of intercomponent compound 2, relaxation calorimeter, x2 = 0.804 | 19.19 J/K/mol
210 K, Crystal of intercomponent compound 1, relaxation calorimetry + DSC, x2 = 0.81 | 18.76 J/K/mol
210 K, Crystal of intercomponent compound 2, relaxation calorimetry + DSC, x2 = 0.804 | 19.19 J/K/mol
213.04 K, Crystal of intercomponent compound 2, relaxation calorimeter, x2 = 0.804 | 19.24 J/K/mol
213.05 K, Crystal of intercomponent compound 1, relaxation calorimetry, x2 = 0.81 | 18.87 J/K/mol
